In brackets after ≈: the same amount, converted by molar mass. Activity calls are given as the source filed them. No cut-off for these calls is given here.
Columns and labels:
Nakaseomyces glabratus [1] = test: Minimum inhibitory concentration required for antifungal activity against Candida glabrata DSM 6425 strain; type: functional
Candida albicans [2] = test: Minimum fungicidal concentration required for antifungal activity against Candida albicans ATCC 10231 strain; type: functional
Nakaseomyces glabratus [3] = test: Minimum fungicidal concentration required for antifungal activity against Candida glabrata DSM 6425 strain; type: functional
Candida tropicalis [4] = test: Minimum fungicidal concentration required for antifungal activity against Candida tropicalis DSM 1346 strain; type: functional
Candida tropicalis [5] = test: Minimum inhibitory concentration required for antifungal activity against Candida tropicalis DSM 1346 strain; type: functional
Cryptococcus neoformans [6] = test: Minimum inhibitory concentration required for antifungal activity against Cryptococcus neoformans DSM 70219 strain; type: functional
Candida albicans [7] = test: Minimum inhibitory concentration required for antifungal activity against Candida albicans ATCC 10231 strain; type: functional
Cryptococcus neoformans [8] = test: Minimum fungicidal concentration required for antifungal activity against Cryptococcus neoformans DSM 70219 strain; type: functional
Pichia kudriavzevii [9] = test: Minimum fungicidal concentration required for antifungal activity against Issatchenkia orientalis DSM 6128 strain; type: functional
Pichia kudriavzevii [10] = test: Minimum inhibitory concentration required for antifungal activity against Issatchenkia orientalis DSM 6128 strain; type: functional
[11] = Ratio of MFC99/MIC for antifungal activity against Candida albicans ATCC 10231 strain was determined; type: functional
[12] = Ratio of MFC99/MIC for antifungal activity against Candida glabrata DSM 6425 strain was determined; type: functional
[13] = Ratio of MFC99/MIC for antifungal activity against Candida tropicalis DSM 1346 strain was determined; type: functional
[14] = Ratio of MFC99/MIC for antifungal activity against Cryptococcus neoformans DSM 70219 strain was determined; type: functional
[15] = Ratio of MFC99/MIC for antifungal activity against Issatchenkia orientalis DSM 6128 strain was determined; type: functional
Escherichia coli = test: Antibacterial activity against gram-negative bacteria Escherichia coli ATCC 25922; No effect; type: functional, organism-based
Enterococcus faecalis = test: Antibacterial activity against gram-positive bacteria Enterococcus faecalis ATCC 29212; No effect; type: functional, organism-based
Klebsiella pneumoniae = test: Antibacterial activity against gram-negative bacteria K. pneumoniae; No effect; type: functional, organism-based
Listeria monocytogenes = test: Antibacterial activity against gram-positive bacteria Listeria monocytogenes CIP 82110T; No effect; type: functional, organism-based
Proteus mirabilis = test: Antibacterial activity against gram-negative bacteria Proteus mirabilis CIP 1031811; No effect; type: functional, organism-based
Pseudomonas aeruginosa = test: Antibacterial activity against gram-negative bacteria Pseudomonas aeruginosa ATCC 27853; No effect; type: functional, organism-based
Salmonella typhimurium = test: Antibacterial activity against gram-negative bacteria Salmonella ser. Typhimurium; No effect; type: functional, organism-based; details: Salmonella enterica subsp. enterica serovar Typhimurium
Staphylococcus aureus = test: Antibacterial activity against gram-positive bacteria Staphylococcus aureus ATCC 9144; No effect; type: functional, organism-based
Streptococcus pyogenes = test: Antibacterial activity against gram-positive bacteria Streptococcus pyogenes ATCC 19165; No effect; type: functional, organism-based
Salmonella enterica = test: Antibacterial activity against gram-negative bacteria S. choleraesuis; No effect; type: functional, organism-based

Compound	MIC (Nakaseomyces glabratus [1]) [µg/mL]	MFC99 (Candida albicans [2]) [µg/mL]	MFC99 (Nakaseomyces glabratus [3]) [µg/mL]	MFC99 (Candida tropicalis [4]) [µg/mL]	MIC (Candida tropicalis [5]) [µg/mL]	MIC (Cryptococcus neoformans [6]) [µg/mL]	MIC (Candida albicans [7]) [µg/mL]	MFC99 (Cryptococcus neoformans [8]) [µg/mL]	MFC99 (Pichia kudriavzevii [9]) [µg/mL]	MIC (Pichia kudriavzevii [10]) [µg/mL]	Activity (Escherichia coli)	Activity (Enterococcus faecalis)	Activity (Klebsiella pneumoniae)	Activity (Listeria monocytogenes)	Activity (Proteus mirabilis)	Activity (Pseudomonas aeruginosa)	Activity (Salmonella typhimurium)	Activity (Staphylococcus aureus)	Activity (Streptococcus pyogenes)	Activity (Salmonella enterica)	also measured
Clc1nss/c1=N\c1ccccc1	16 (≈ 70 µM)	16 (≈ 70 µM)	16 (≈ 70 µM)	16 (≈ 70 µM)	16 (≈ 70 µM)	8 (≈ 35 µM)	16 (≈ 70 µM)	8 (≈ 35 µM)	16 (≈ 70 µM)	16 (≈ 70 µM)											Ratio [11]: 1; Ratio [12]: 1; Ratio [13]: 1; Ratio [14]: 1; Ratio [15]: 1
COc1nc(C#N)nc2ccccc12											inactive	inactive	inactive	inactive	inactive	inactive	inactive	inactive	inactive	inactive	
COc1cc(C#N)c(/N=c2\ssnc2Cl)cc1OC	32 (≈ 102 µM)	32 (≈ 102 µM)	48 (≈ 153 µM)	>48	48 (≈ 153 µM)	32 (≈ 102 µM)	32 (≈ 102 µM)	32 (≈ 102 µM)	48 (≈ 153 µM)	32 (≈ 102 µM)											Ratio [11]: 1; Ratio [12]: 1.5; Ratio [14]: 1; Ratio [15]: 1.5
COc1ccc(/N=c2\ssnc2Cl)cc1OC	16 (≈ 55.4 µM)	16 (≈ 55.4 µM)	16 (≈ 55.4 µM)	32 (≈ 111 µM)	16 (≈ 55.4 µM)	16 (≈ 55.4 µM)	16 (≈ 55.4 µM)	32 (≈ 111 µM)	32 (≈ 111 µM)	16 (≈ 55.4 µM)											Ratio [11]: 1; Ratio [12]: 1; Ratio [13]: 2; Ratio [14]: 2; Ratio [15]: 2
OC(Cn1cncn1)(Cn1cncn1)c1ccc(F)cc1F [FLUCONAZOLE]	4 (≈ 13.1 µM)	>128	>128	>128	4 (≈ 13.1 µM)	4 (≈ 13.1 µM)	2 (≈ 6.53 µM)	>128	64 (≈ 209 µM)	16 (≈ 52.2 µM)											Ratio [11]: >64; Ratio [12]: >32; Ratio [13]: >32; Ratio [14]: >32; Ratio [15]: 4
COc1ccccc1/N=c1\ssnc1Cl	16 (≈ 61.8 µM)	16 (≈ 61.8 µM)	16 (≈ 61.8 µM)	16 (≈ 61.8 µM)	16 (≈ 61.8 µM)	8 (≈ 30.9 µM)	16 (≈ 61.8 µM)	16 (≈ 61.8 µM)	16 (≈ 61.8 µM)	16 (≈ 61.8 µM)											Ratio [11]: 1; Ratio [12]: 1; Ratio [13]: 1; Ratio [14]: 2; Ratio [15]: 1
CCSc1nc(C#N)nc2cc(OC)c(OC)cc12											inactive	inactive	inactive	inactive	inactive	inactive	inactive	inactive	inactive	inactive	
N#Cc1nc2ccccc2c(=O)o1											inactive	inactive	inactive	inactive	inactive	inactive	inactive	inactive	inactive	inactive	
Nc1nc(=O)[nH]cc1F [FLUCYTOSINE]	0.05 (≈ 0.387 µM)	4 (≈ 31 µM)	0.25 (≈ 1.94 µM)	0.25 (≈ 1.94 µM)	0.1 (≈ 0.775 µM)	2 (≈ 15.5 µM)	0.13 (≈ 1.01 µM)	>128	64 (≈ 496 µM)	16 (≈ 124 µM)											Ratio [12]: 5; Ratio [13]: 5; Ratio [14]: >64; Ratio [15]: 4
COc1cc2nc(C#N)nc(OC(C)C)c2cc1OC											inactive	inactive	inactive	inactive	inactive	inactive	inactive	inactive	inactive	inactive	
N#Cc1nc2ccccc2c(=O)s1											inactive	inactive	inactive	inactive	inactive	inactive	inactive	inactive	inactive	inactive	
CCCCOc1nc(C#N)nc2cc(OC)c(OC)cc12											inactive	inactive	inactive	inactive	inactive	inactive	inactive	inactive	inactive	inactive	
N#Cc1nc2cc(Cl)ccc2c(=O)o1											inactive	inactive	inactive	inactive	inactive	inactive	inactive	inactive	inactive	inactive	
COc1cc2nc(C#N)oc(=O)c2cc1OC											inactive	inactive	inactive	inactive	inactive	inactive	inactive	inactive	inactive	inactive	
COC(=O)c1cc(OC)c(OC)cc1/N=c1\ssnc1Cl	16 (≈ 46.1 µM)	48 (≈ 138 µM)	48 (≈ 138 µM)	>48	48 (≈ 138 µM)	32 (≈ 92.3 µM)	32 (≈ 92.3 µM)	48 (≈ 138 µM)	48 (≈ 138 µM)	32 (≈ 92.3 µM)											Ratio [11]: 1.5; Ratio [12]: 3; Ratio [14]: 1.5; Ratio [15]: 1.5
COc1cc2nc(C#N)sc(=O)c2cc1OC											inactive	inactive	inactive	inactive	inactive	inactive	inactive	inactive	inactive	inactive	
CCOc1nc(C#N)nc2cc(OC)c(OC)cc12											inactive	inactive	inactive	inactive	inactive	inactive	inactive	inactive	inactive	inactive	
N#Cc1nc2cc(Cl)ccc2c(=O)s1											inactive	inactive	inactive	inactive	inactive	inactive	inactive	inactive	inactive	inactive	
CCOc1nc(C#N)nc2ccccc12											inactive	inactive	inactive	inactive	inactive	inactive	inactive	inactive	inactive	inactive	
Clc1nss/c1=N\c1ccc2c(c1)OCCO2	16 (≈ 55.8 µM)	48 (≈ 167 µM)	48 (≈ 167 µM)	>48	48 (≈ 167 µM)	16 (≈ 55.8 µM)	32 (≈ 112 µM)	16 (≈ 55.8 µM)	>48	48 (≈ 167 µM)											Ratio [11]: 1.5; Ratio [12]: 3; Ratio [14]: 1
COc1cc2nc(C#N)nc(OC)c2cc1OC											inactive	inactive	inactive	inactive	inactive	inactive	inactive	inactive	inactive	inactive	
